From patent publication US20050090480A1, “Use of selected amino acid-zinc complexes as anti-malarials” (Council of Scientific & Industrial Research, priority 2003, published 2005)

Columns and labels:
P. falciparum = P. falciparum in vitro culture, parasitemia by Giemsa stained smear after 48 hrs; assay type: cell-based, Plasmodium falciparum; conditions: for inhibition of growth of P. falciparum: 10 μM concentration, 48 hrs incubation at 37° C.
Experimental: Selective enrichment of activity was monitored at every step using P. falciparum culture for in vitro studies.
Zinc complex of L-proline was dissolved in normal saline and filter sterilized. The compound was added to the parasite culture at different concentrations ranging from 1- 10 μM. The compound was tested at the indicated doses using the experimental protocol as described below:
Protocol for Testing the Effect of Drug on P. falciparum for In Vitro Studios
The P. falciparum cultures were synchronized at first by sorbitol treatment. The compound of various concentrations was added to the 200 μl of synchronized P. falciparum culture (1% parasitemia). The parasitemia was checked by making Giemsa stained smear after 48 hrs of incubation at 37° C.

[1] = system: 3D7 strain of P. falciparum; conditions: light microscope (FIG. 3)
Experimental: In this experiment, slides were prepared, stained with Giemsa and examined under a light microscope. Representative pictures are show in FIG. 3.

Plasmodium yeoeli = system: Plasmodium yeoeli
Text: For these experiments, the mouse malaria parasite Plasmodium yeoeli was used as this strain is considered to be closer to human parasite, P. falciparum. Groups of eight mice each were infected with 10^6 parasites/mouse through an intra-peritoneal injection. […] The drug was given once a day for a total period of six days. The mice were then left alone for an additional period of three days, after which the number of survivors were counted (i.e. at […] after infection). The results are shown here in FIG. 5. Group 1 represents a control group of uninfected mice, with no drug given. Group 3 represents the group of infected mice, again with no drug given (i.e. vehicle only).

[2] = system: chloroquine-resistant (W2Mef) strain of P. falciparum
Experimental: The W2Mef strain was used for these experiments. […] The following was the protocol for present experiment.
In the present study, Chloroquine-sensitive (3D7) strain and chloroquine-resistant (W2Mef) strain were used. The cultures were maintained in vitro using culture media consisting of standard RPMI-1640 supplemented with 10% heat inactivated Human Type O^+ Serum, 3.6% NaHCO3 at a hematocrit of 4%. All the assays were carried out in 96 well, flat bottom microtitre plates. For the synchronization of cultures, 5% sorbitol was used. The growth of the parasite was measured with incorporation of Hypoxanthine. A 200 μl volume of the culture parasite was added to each well initially. Different antimalarial compounds at varied concentrations were added to the wells. All the compounds were tested on both chloroquine-sensitive and chloroquine resistant strains. The plates were then placed in an airtight chamber and flushed with the gas mixture (5% CO2, 5% O2 and 90% N2). The plates were finally stored in an incubator at 37° C. for 24 hours.
At the end of the incubation period, 5 μl of diluted ^3H-Hypoxanthine—to a final concentration of 1 μCi—was added to each well. The plates were then returned to the airtight chamber and then flushed with the above gas mixture and incubated for an additional 24 hours. The plates were then stored at −70° C. until required for detection of incorporated radioactivity. When necessary, the plates were thawed and the cells were harvested onto filter-mats. These filter-mats were then dried and sealed.

P. berghei = conditions: about 1 mg to 50 mg/kg
Experimental: BALB/c mice (4-6 weeks old) were infected with 10^5 P. berghei parasites/mouse. […] After four days of infection, various concentrations of compound, at the doses of 10 mg/kg (Group 2) and 20 mg/kg (Group 3) body weight was injected to the mice. The control group (Group 1) indicates the group of mice infected with the parasite, but without any drug (i.e. vehicle only). Group 4 represents a group of infected mice treated with Pyrimethamine (at 20 mg/kg body weight) using an identical treatment regimen. Each group contained ten mice and the parasitemia levels—obtained from blood smears—are given as a percentage of that obtained in untreated mice (FIG. 4).

W2Mef = conditions: FIG. 8

| Molecule | inhibition of growth of P. falciparum (P. falciparum) [%] | inhibits growth of P. facliparum (P. falciparum; about 5 μM to 10 μM) | effect on the parasite in stained slides [1] | inhibits growth of P. yeoeli (Plasmodium yeoeli; about 1 mg to 50 mg/Kg) | percentage of survivors (Plasmodium yeoeli; oral 20 mg/kg body weight once a day for six days, counted twelve days after infection) [%] | potency against chloroquine-sensitive versus chloroquine-resistant strain ([2]; dose response analysis, 3D7 and W2Mef (FIG. 7)) | activity against the chloroquine resistant strain-W2Mef ([2]; preliminary experiments and dose response analysis) | inhibits growth of P. berghei (P. berghei) | manner of action on W2Mef (W2Mef) | increase in the IC50 value for chloroquine, W2Mef compared with 3D7 strain ([2]; FIG. 6) |
| --- | --- | --- | --- | --- | --- | --- | --- | --- | --- | --- |
| Zinc complex of L-proline [PIZ2] | > 80 | about 100% | significant disintegration of the parasite | about 90% | 88 | remained identical | active | about 80% | direct killing | – |
| CCN(CC)CCCC(C)Nc1ccnc2cc(Cl)ccc12 (centres unmarked) [chloroquine, Chloroquine, reference compound] | – | – | – | – | – | – | – | – | – | near sevenfold increase |
| Zinc complexes of L-histidine [Zinc complex of L-histidine] | ~85 | – | – | – | – | – | – | – | – | – |
